Assay: Urinary excretion of phenolic metabolites after intake of the GCPE nutraceutical
Details: for Cumulative urinary excretion, Total 0–24 h / Urinary excretion: urine; for Cumulative urinary excretion, Total 0–24 h: mean ± SEM, n = 9

Row | Cumulative urinary excretion, Total 0–24 h (week 0) | Cumulative urinary excretion, Total 0–24 h (week 8) | Amount excreted in urine, 0- 3 h (week 0, interval 0–3 h) | Amount excreted in urine, 3-6 h (week 0, interval 3–6 h) | Amount excreted in urine, 6-9 h (week 0, interval 6–9 h) | Amount excreted in urine, 9-11 h (week 0, interval 9–11 h) | Amount excreted in urine, 0- 3 h (week 8, interval 0–3 h) | Amount excreted in urine, 3-6 h (week 8, interval 3–6 h) | Amount excreted in urine, 6-9 h (week 8, interval 6–9 h) | Amount excreted in urine, 9-11 h (week 8, interval 9–11 h) | Urinary excretion (week 0) | Urinary excretion (week 8) | Amount excreted in urine, 11-24 h (week 0, interval 11–24 h) | Amount excreted in urine, 11-24 h (week 8, interval 11–24 h) | Compound
1 | 0.21 ± 0.05 µmol | 0.18 ± 0.03 µmol | 0.11 ± 0.02 µmol | 0.08 ± 0.03 µmol | 0.022 ± 0.009 µmol | 0.003 ± 0.002 µmol | 0.1 ± 0.02 µmol | 0.045 ± 0.008 µmol | 0.028 ± 0.007 µmol | 0.008 ± 0.005 µmol |  |  |  |  | O=C(/C=C/c1ccc(O)c(O)c1)O[C@@H]1C[C@](O)(C(=O)O)C[C@@H](O)[C@H]1O [3-Caffeoylquinic acid]
2 | 0.35 ± 0.07 µmol | 0.27 ± 0.08 µmol | 0.06 ± 0.02 µmol | 0.033 ± 0.005 µmol | 0.05 ± 0.02 µmol | 0.04 ± 0.01 µmol | 0.025 ± 0.007 µmol | 0.019 ± 0.005 µmol | 0.04 ± 0.01 µmol | 0.03 ± 0.01 µmol | 0.35 µmol/24 h | 0.27 µmol/24 h | 0.17 ± 0.04 µmol | 0.15 ± 0.06 µmol | O=C(CCc1ccc(O)c(O)c1)OC1CC(O)(C(=O)O)CC(O)C1O (stereo not shown) [3-Dihydrocaffeoylquinic acid]
3 | 0.3 ± 0.1 µmol | 0.5 ± 0.07 µmol | 0.05 ± 0.01 µmol | 0.034 ± 0.006 µmol | 0.029 ± 0.006 µmol | 0.019 ± 0.005 µmol | 0.11 ± 0.02 µmol | 0.062 ± 0.008 µmol | 0.08 ± 0.01 µmol | 0.08 ± 0.02 µmol |  |  | 0.16 ± 0.09 µmol | 0.14 ± 0.02 µmol | COc1cc(CCC(=O)OC2CC(O)(C(=O)O)CC(O)C2O)ccc1O (stereo not shown) [3-Dihydroferuloylquinic acid]
4 | 0.06 ± 0.02 µmol | 0.04 ± 0.02 µmol | 0.011 ± 0.004 µmol | 0.005 ± 0.002 µmol | 0.005 ± 0.002 µmol | 0.006 ± 0.002 µmol | 0.008 ± 0.004 µmol | 0.003 ± 0.002 µmol | 0.004 ± 0.002 µmol | 0.004 ± 0.003 µmol |  |  | 0.036 ± 0.008 µmol | 0.02 ± 0.01 µmol | O=C(CCc1ccc(O)c(O)c1)OC1C(O)CC(O)(C(=O)O)CC1O (stereo not shown) [4-Dihydrocaffeoylquinic acid]
5 | 0.06 ± 0.02 µmol | 0.05 ± 0.02 µmol | 0.011 ± 0.004 µmol | 0.008 ± 0.003 µmol | 0.013 ± 0.005 µmol | 0.005 ± 0.003 µmol | 0.015 ± 0.008 µmol |  | 0.011 ± 0.007 µmol | 0.003 ± 0.002 µmol |  |  | 0.019 ± 0.009 µmol | 0.009 ± 0.005 µmol | COc1cc(CCC(=O)OC2C(O)CC(O)(C(=O)O)CC2O)ccc1O (stereo not shown) [4-Dihydroferuloylquinic acid]
6 | 0.33 ± 0.06 µmol | 0.33 ± 0.04 µmol | 0.18 ± 0.04 µmol | 0.12 ± 0.04 µmol | 0.03 ± 0.01 µmol | 0.004 ± 0.002 µmol | 0.18 ± 0.04 µmol | 0.08 ± 0.01 µmol | 0.033 ± 0.008 µmol | 0.009 ± 0.007 µmol |  |  |  | 0.006 ± 0.006 µmol | O=C(/C=C/c1ccc(O)c(O)c1)O[C@@H]1C[C@@](O)(C(=O)O)C[C@@H](O)[C@@H]1O [5-Caffeoylquinic acid]
7 | 0.3 ± 0.1 µmol | 0.18 ± 0.07 µmol | 0.12 ± 0.08 µmol | 0.023 ± 0.004 µmol | 0.027 ± 0.009 µmol | 0.013 ± 0.004 µmol | 0.08 ± 0.04 µmol | 0.021 ± 0.008 µmol | 0.03 ± 0.02 µmol | 0.008 ± 0.003 µmol |  |  | 0.1 ± 0.04 µmol | 0.04 ± 0.02 µmol | COc1cc(CCC(=O)OC2CC(O)(C(=O)O)CC(O)C2O)ccc1O (stereo not shown) [5-Dihydroferuloylquinic acid]

Continued, compound first:

Row | Compound | Cumulative urinary excretion, Total 0–24 h (week 0) | Cumulative urinary excretion, Total 0–24 h (week 8) | Amount excreted in urine, 0- 3 h (week 0, interval 0–3 h) | Amount excreted in urine, 3-6 h (week 0, interval 3–6 h) | Amount excreted in urine, 6-9 h (week 0, interval 6–9 h) | Amount excreted in urine, 9-11 h (week 0, interval 9–11 h) | Amount excreted in urine, 0- 3 h (week 8, interval 0–3 h) | Amount excreted in urine, 3-6 h (week 8, interval 3–6 h) | Amount excreted in urine, 6-9 h (week 8, interval 6–9 h) | Amount excreted in urine, 9-11 h (week 8, interval 9–11 h) | Urinary excretion (week 0) | Urinary excretion (week 8) | Amount excreted in urine, 11-24 h (week 0, interval 11–24 h) | Amount excreted in urine, 11-24 h (week 8, interval 11–24 h)
8 | O=C(/C=C/c1ccc(O)c(O)c1)OC1[C@H](O)CC(O)(C(=O)O)C[C@H]1O (stereo partly shown) [4-Caffeoylquinic acid] | 0.13 ± 0.07 µmol | 0.15 ± 0.07 µmol |  |  | 0.03 ± 0.02 µmol | 0.05 ± 0.04 µmol | 0.01 ± 0.01 µmol | 0.008 ± 0.005 µmol | 0.06 ± 0.03 µmol | 0.05 ± 0.03 µmol |  |  | 0.05 ± 0.02 µmol | 0.02 ± 0.01 µmol
9 | O=C(O)/C=C/c1ccc(O)c(OS(=O)(=O)O)c1 [CA-3′-sulfate, 4′Hydroxycinnamic acid-3′-sulfate] | 3.7 ± 0.5 µmol | 4.4 ± 0.8 µmol | 1.2 ± 0.3 µmol | 0.7 ± 0.2 µmol | 0.8 ± 0.2 µmol | 0.21 ± 0.06 µmol | 1.2 ± 0.2 µmol | 0.6 ± 0.1 µmol | 0.9 ± 0.3 µmol | 0.7 ± 0.3 µmol |  |  | 0.9 ± 0.2 µmol | 1 ± 0.3 µmol
10 | O=C(O)CCc1ccc(O)c(O[C@@H]2O[C@H](C(=O)O)[C@@H](O)[C@H](O)[C@H]2O)c1 [DHCA-3′-glucuronide, 3-(4′-Hydroxyphenyl)propanoic acid-3′-glucuronide] | 0.6 ± 0.2 µmol | 0.5 ± 0.1 µmol | 0.09 ± 0.03 µmol | 0.07 ± 0.02 µmol | 0.08 ± 0.04 µmol | 0.04 ± 0.02 µmol | 0.11 ± 0.04 µmol | 0.06 ± 0.02 µmol | 0.08 ± 0.02 µmol |  |  |  | 0.3 ± 0.09 µmol | 0.2 ± 0.06 µmol
11 | O=C(O)CCc1ccc(O)c(OS(=O)(=O)O)c1 [DHCA-3′-sulfate, 3-(4′-Hydroxyphenyl)propanoic acid-3′-sulfate] | 9 ± 2 µmol | 9 ± 3 µmol | 0.32 ± 0.07 µmol | 0.26 ± 0.07 µmol | 2.5 ± 0.9 µmol | 2 ± 0.7 µmol | 0.7 ± 0.2 µmol | 0.6 ± 0.2 µmol | 2.5 ± 0.6 µmol | 3 ± 1 µmol |  |  | 4 ± 1 µmol | 2 ± 1 µmol
12 | O=C(O)CCc1ccc(O[C@@H]2O[C@H](C(=O)O)[C@@H](O)[C@H](O)[C@H]2O)cc1 [DHCoA-4′-glucuronide, 3-(Phenyl)propanoic acid-4′-glucuronide] | 2.1 ± 0.3 µmol | 1.9 ± 0.3 µmol | 0.17 ± 0.06 µmol | 0.1 ± 0.03 µmol | 0.26 ± 0.09 µmol | 0.28 ± 0.07 µmol | 0.23 ± 0.09 µmol | 0.16 ± 0.05 µmol | 0.56 ± 0.2 µmol | 0.4 ± 0.1 µmol |  |  | 1.3 ± 0.2 µmol | 1 ± 0.1 µmol
13 | O=C(O)CCc1ccc(OS(=O)(=O)O)cc1 [DHCoA-4′-sulfate, 3-(Phenyl)propanoic acid-4′-sulfate] | 21 ± 6 µmol | 21 ± 4 µmol | 0.9 ± 0.4 µmol | 0.7 ± 0.1 µmol | 3 ± 1 µmol | 3 ± 1 µmol | 2 ± 0.8 µmol | 1.5 ± 0.5 µmol | 5 ± 2 µmol | 5 ± 2 µmol |  |  | 12 ± 4 µmol | 7 ± 3 µmol
14 | COc1ccc(/C=C/C(=O)NCC(=O)O)cc1O [IsoFeruloylglicine] | 0.44 ± 0.04 µmol | 0.6 ± 0.1 µmol | 0.04 ± 0.01 µmol | 0.035 ± 0.009 µmol | 0.08 ± 0.02 µmol | 0.11 ± 0.01 µmol | 0.13 ± 0.05 µmol | 0.1 ± 0.02 µmol | 0.12 ± 0.04 µmol | 0.06 ± 0.02 µmol |  |  | 0.16 ± 0.03 µmol | 0.17 ± 0.05 µmol
15 | COc1ccc(C=CC(=O)O)cc1O[C@@H]1O[C@H](C(=O)O)[C@@H](O)[C@H](O)[C@H]1O [iFA-3′-glucuronide, 4′-Methoxycinnamic acid-3′-glucuronide] | 4.4 ± 0.5 µmol | 6 ± 1 µmol | 0.9 ± 0.2 µmol | 0.8 ± 0.2 µmol | 1.1 ± 0.3 µmol | 0.49 ± 0.09 µmol | 1.4 ± 0.3 µmol | 0.9 ± 0.2 µmol | 1.7 ± 0.3 µmol | 1 ± 0.4 µmol |  |  | 1.1 ± 0.2 µmol | 1.1 ± 0.3 µmol
16 | COc1ccc(C=CC(=O)O)cc1OS(=O)(=O)O [iFA-3′-sulfate, 4′-Methoxycinnamic acid-3′-sulfate] | 1.1 ± 0.3 µmol | 2.1 ± 0.9 µmol | 0.4 ± 0.1 µmol | 0.07 ± 0.04 µmol | 0.24 ± 0.08 µmol | 0.09 ± 0.03 µmol | 0.34 ± 0.07 µmol | 0.1 ± 0.03 µmol | 0.32 ± 0.06 µmol | 0.3 ± 0.1 µmol |  |  | 0.4 ± 0.1 µmol | 1 ± 0.7 µmol

From paper PMC9230201, “Sustained Consumption of a Decaffeinated Green Coffee Nutraceutical Has Limited Effects on Phenolic Metabolism and Bioavailability in Overweight/Obese Subjects” (Nutrients, 2022)
